# Source: PubChem BioAssay (NCI)
#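 Cultured in 96-well plates, cells were exposed to test compound for 48 hours across five concentrations. At the TGI there is no net growth.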
# Columns and labels:
# Experiment in all cases: growth of human tumour cells (NCI), 48 h
# [1] = test system: TK-10 renal
# [2] = test system: CCRF-CEM leukemia
# [3] = test system: A498 renal
# [4] = test system: OVCAR-8 ovarian
# [5] = test system: HS 578T breast
# [6] = test system: U251 CNS
# [7] = test system: MDA-MB-231 breast
# [8] = test system: A549 NSCLC
# [9] = test system: SF-539 CNS
# [10] = test system: HOP-62 NSCLC
# [11] = test system: 786-0 renal
# [12] = test system: SK-MEL-5 melanoma
# [13] = test system: SF-295 CNS
# [14] = test system: SNB-75 CNS
# [15] = test system: SF-268 CNS
# [16] = test system: HCT-15 colon
# [17] = test system: SK-MEL-2 melanoma
# [18] = test system: SW-620 colon
# [19] = test system: UACC-62 melanoma
# [20] = test system: T-47D breast
# [21] = test system: UACC-257 melanoma
# [22] = test system: SN12C renal
# [23] = test system: NCI-H226 lung
# [24] = test system: OVCAR-3 ovarian
# [25] = test system: PC-3 prostate
# [26] = test system: MOLT-4 leukemia
# [27] = test system: NCI-H460 lung
# [28] = test system: NCI-H522 lung
# [29] = test system: EKVX NSCLC
# [30] = test system: DU-145 prostate
# [31] = test system: LOX IMVI melanoma
# [32] = test system: SK-MEL-28 melanoma
# [33] = test system: KM12 colon
# [34] = test system: NCI-H23 lung
# [35] = test system: CAKI-1 renal
# [36] = test system: MDA-N
# [37] = test system: HL-60(TB) leukemia
# [38] = test system: OVCAR-4 ovarian
# [39] = test system: SK-OV-3 ovarian
# [40] = test system: ACHN renal
# [41] = test system: HCT-116 colon
# [42] = test system: COLO 205 colon
# [43] = test system: M14 melanoma
# [44] = test system: MCF7 breast
# [45] = test system: OVCAR-5 ovarian
# [46] = test system: HT29 colon
# [47] = test system: BT-549 breast
# [48] = test system: UO-31 renal
# [49] = test system: SNB-19 CNS
# [50] = test system: HOP-92 NSCLC
# [51] = test system: MDA-MB-435
# [52] = test system: K-562 leukemia
# [53] = test system: HCC-2998 colon
# [54] = test system: RPMI-8226 leukemia
# [55] = test system: RXF 393 renal
compound,measurement,setting,value
CCCCC1C=Cn2c(=O)oc3c(OC(C)C)c(OC(C)C)c(O)c1c32 (centres undefined),TGI,[1],31.4 µM
same,TGI,[2],25.6 µM
same,TGI,[3],32.3 µM
same,TGI,[4],29.5 µM
same,TGI,[5],67 µM
same,TGI,[6],29.4 µM
same,TGI,[7],33.1 µM
same,TGI,[8],46.6 µM
same,TGI,[9],38.7 µM
same,TGI,[10],38 µM
same,TGI,[11],48.6 µM
same,TGI,[12],27.8 µM
same,TGI,[13],40 µM
same,TGI,[14],47.5 µM
same,TGI,[15],44.9 µM
same,TGI,[16],31.4 µM
same,TGI,[17],37.7 µM
same,TGI,[18],27.2 µM
same,TGI,[19],28.8 µM
same,TGI,[20],27 µM
same,TGI,[21],41.7 µM
same,TGI,[22],49.1 µM
same,TGI,[23],27.5 µM
same,TGI,[24],30.6 µM
same,TGI,[25],> 100 µM
same,TGI,[26],27.8 µM
same,TGI,[27],29.6 µM
same,TGI,[28],24.7 µM
same,TGI,[29],83.1 µM
same,TGI,[30],34.2 µM
same,TGI,[31],27.4 µM
same,TGI,[32],39.3 µM
same,TGI,[33],27.4 µM
same,TGI,[34],32.6 µM
same,TGI,[35],37.5 µM
same,TGI,[36],55.5 µM
same,TGI,[37],22.8 µM
same,TGI,[38],42.8 µM
same,TGI,[39],84.3 µM
same,TGI,[40],> 100 µM
same,TGI,[41],34.9 µM
same,TGI,[42],30.3 µM
same,TGI,[43],46.3 µM
same,TGI,[44],29.2 µM
same,TGI,[45],34.2 µM
same,TGI,[46],29.2 µM
same,TGI,[47],34.7 µM
same,TGI,[48],27.8 µM
same,TGI,[49],68.2 µM
same,TGI,[50],47.2 µM
same,TGI,[51],26.8 µM
CC(C)(C)N1C(=O)N=[N+](/C(=C(\c2ccccc2)n2nc([O-])n(C(C)(C)C)c2=O)c2ccccc2)C1=O,TGI,[1],> 100 µM
same,TGI,[2],> 100 µM
same,TGI,[3],> 100 µM
same,TGI,[5],> 100 µM
same,TGI,[6],> 100 µM
same,TGI,[7],> 100 µM
same,TGI,[8],> 100 µM
same,TGI,[9],> 100 µM
same,TGI,[11],> 100 µM
same,TGI,[12],> 100 µM
same,TGI,[13],> 100 µM
same,TGI,[14],> 100 µM
same,TGI,[15],> 100 µM
same,TGI,[16],> 100 µM
same,TGI,[17],> 100 µM
same,TGI,[18],> 100 µM
same,TGI,[19],> 100 µM
same,TGI,[20],> 100 µM
same,TGI,[21],> 100 µM
same,TGI,[22],> 100 µM
same,TGI,[24],> 100 µM
same,TGI,[25],> 100 µM
same,TGI,[26],> 100 µM
same,TGI,[27],> 100 µM
same,TGI,[52],> 100 µM
same,TGI,[30],> 100 µM
same,TGI,[31],> 100 µM
same,TGI,[32],> 100 µM
same,TGI,[33],> 100 µM
same,TGI,[34],> 100 µM
same,TGI,[35],> 100 µM
same,TGI,[36],> 100 µM
same,TGI,[38],> 100 µM
same,TGI,[39],> 100 µM
same,TGI,[40],> 100 µM
same,TGI,[41],> 100 µM
same,TGI,[42],> 100 µM
same,TGI,[43],> 100 µM
same,TGI,[44],> 100 µM
same,TGI,[45],> 100 µM
same,TGI,[53],> 100 µM
same,TGI,[47],> 100 µM
same,TGI,[48],> 100 µM
same,TGI,[54],> 100 µM
same,TGI,[49],> 100 µM
same,TGI,[55],> 100 µM
same,TGI,[50],> 100 µM
same,TGI,[51],> 100 µM
